Source: the supplement of paper PMC10307832

Assays:
Assay in all cases: relative viability (nuclei count vs DMSO), 5 days (fraction); higher = more cells survive
Gemcitabine + Trametinib = compound: Nc1ccn([C@@H]2O[C@H](CO)[C@@H](O)C2(F)F)c(=O)n1 [Gemcitabine] + CC(=O)Nc1cccc(-n2c(=O)n(C3CC3)c(=O)c3c(Nc4ccc(I)cc4F)n(C)c(=O)c(C)c32)c1 [Trametinib] (partner 0.02 µM)
Outline: (§1)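 Lung cancer cell lines were pin-tool dosed in 1536-well plates on the day after seeding, with either a lone drug or a fixed anchor-drug dose plus five library-drug doses (not always all listed) in √10 steps. Nuclei were counted on 4× images after 5 days. Relative viability is the ratio of treated-well to vehicle-well nuclei counts, with each value a median of duplicate plates.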

Gemcitabine + Lapatinib = compound: Nc1ccn([C@@H]2O[C@H](CO)[C@@H](O)C2(F)F)c(=O)n1 [Gemcitabine] + CS(=O)(=O)CCNCc1ccc(-c2ccc3ncnc(Nc4ccc(OCc5cccc(F)c5)c(Cl)c4)c3c2)o1 [Lapatinib] (partner 2 µM)
Outline: as §1

Gemcitabine + Phenformin = compound: Nc1ccn([C@@H]2O[C@H](CO)[C@@H](O)C2(F)F)c(=O)n1 [Gemcitabine] + N=C(N)NC(=N)NCCc1ccccc1 [Phenformin] (partner 250 µM)
Outline: as §1

Gemcitabine + Olaparib = compound: Nc1ccn([C@@H]2O[C@H](CO)[C@@H](O)C2(F)F)c(=O)n1 [Gemcitabine] + O=C(c1cc(Cc2n[nH]c(=O)c3ccccc23)ccc1F)N1CCN(C(=O)C2CC2)CC1 [Olaparib] (partner 8 µM)
Outline: as §1

| Cell Line | relative viability (Gemcitabine + Trametinib; first compound 0.001 µM) | relative viability (Gemcitabine + Trametinib; first compound 0.003162 µM) | relative viability (Gemcitabine + Trametinib; first compound 0.01 µM) | relative viability (Gemcitabine + Trametinib; first compound 0.03162 µM) | relative viability (Gemcitabine + Trametinib; first compound 0.1 µM) | relative viability (Gemcitabine + Lapatinib; first compound 0.001 µM) | relative viability (Gemcitabine + Lapatinib; first compound 0.003162 µM) | relative viability (Gemcitabine + Lapatinib; first compound 0.01 µM) | relative viability (Gemcitabine + Lapatinib; first compound 0.03162 µM) | relative viability (Gemcitabine + Lapatinib; first compound 0.1 µM) | relative viability (Gemcitabine + Phenformin; first compound 0.001 µM) | relative viability (Gemcitabine + Phenformin; first compound 0.003162 µM) | relative viability (Gemcitabine + Phenformin; first compound 0.01 µM) | relative viability (Gemcitabine + Phenformin; first compound 0.03162 µM) | relative viability (Gemcitabine + Phenformin; first compound 0.1 µM) | relative viability (Gemcitabine + Olaparib; first compound 0.001 µM) | relative viability (Gemcitabine + Olaparib; first compound 0.003162 µM) | relative viability (Gemcitabine + Olaparib; first compound 0.01 µM) | relative viability (Gemcitabine + Olaparib; first compound 0.03162 µM) | relative viability (Gemcitabine + Olaparib; first compound 0.1 µM) |
| --- | --- | --- | --- | --- | --- | --- | --- | --- | --- | --- | --- | --- | --- | --- | --- | --- | --- | --- | --- | --- |
| HCC-827 | 0.537 | 0.247 | 0.316 | 0.184 | 0.156 | 0.181 | 0.177 | 0.18 | 0.138 | 0.126 | 0.448 | 0.248 | 0.281 | 0.197 | 0.154 | 0.673 | 0.434 | 0.384 | 0.0193 | 0.162 |
| HCC-78 | 0.749 | 0.42 | 0.373 | 0.274 | 0.231 | 0.695 | 0.485 | 0.146 | 0.272 | 0.168 | 0.581 | 0.538 | 0.285 | 0.209 | 0.233 | 0.715 | 0.335 | 0.213 | 0.21 | 0.181 |
| NCI-H2085 | 0.512 | 0.589 | 0.472 | 0.174 | 0.226 | 0.811 | 0.811 | 0.668 | 0.434 | 0.302 | 0.79 | 0.61 | 0.422 | 0.282 | 0.271 | 0.756 | 0.786 | 0.699 | 0.597 | 0.426 |
| PC-14 | 0.885 | 0.279 | 0.037 | 0.0374 | 0.0267 | 0.323 | 0.234 | 0.203 | 0.0925 | 0.0562 | 0.558 | 0.113 | 0.0527 | 0.0312 | 0.0491 | 0.256 | 0.13 | 0.0358 | 0.0472 | 0.0357 |
| NCI-H1648 | 0.423 | 0.339 | 0.473 | 0.326 | 0.234 | – | – | – | – | – | – | – | – | – | – | 1.01 | 0.659 | 0.497 | 0.335 | 0.227 |
| A-427 | 0.704 | 0.799 | 0.521 | 0.356 | 0.223 | 1.09 | 0.686 | 0.808 | 0.199 | 0.13 | 0.328 | 0.273 | 0.16 | 0.178 | 0.117 | 0.756 | 0.745 | 0.481 | 0.259 | 0.199 |
| H3255 | 0.608 | 0.517 | 0.514 | 0.318 | 0.271 | 0.223 | 0.235 | 0.221 | 0.138 | 0.159 | 0.352 | 0.266 | 0.31 | 0.368 | 0.302 | 0.573 | 0.528 | 0.451 | 0.269 | 0.242 |
| HCC-44 | 1.11 | 1.02 | 1.02 | 0.895 | 0.42 | 1.01 | 0.98 | 0.897 | 0.477 | 0.17 | 0.156 | 0.139 | 0.101 | 0.098 | 0.102 | 0.932 | 0.988 | 0.931 | 0.704 | 0.391 |
| NCI-H1734 | 0.705 | 0.44 | 0.193 | 0.135 | 0.1 | 0.985 | 0.97 | 0.421 | 0.165 | 0.0939 | 0.337 | 0.29 | 0.163 | 0.0972 | 0.106 | 0.535 | 0.348 | 0.183 | 0.111 | 0.102 |
| NCI-H2228 | 0.587 | 0.248 | 0.156 | 0.0861 | 0.111 | 1.06 | 0.827 | 0.207 | 0.109 | 0.148 | 0.304 | 0.168 | 0.126 | 0.111 | 0.0895 | 0.627 | 0.333 | 0.152 | 0.144 | 0.0825 |
| ABC-1 | – | – | – | – | – | 1.14 | 1.2 | 0.95 | 0.88 | 0.664 | 0.197 | – | 0.236 | 0.186 | 0.212 | – | 0.687 | 0.54 | 0.427 | 0.398 |
| COR-L23 | 0.584 | 0.656 | 0.248 | 0.116 | 0.099 | 1.02 | 0.896 | 0.72 | 0.105 | 0.105 | 0.432 | 0.368 | 0.193 | 0.1 | 0.0829 | 0.35 | 0.31 | 0.141 | 0.0915 | 0.0858 |
| ChaGo-K-1 | 0.897 | 0.757 | 0.461 | 0.189 | 0.155 | – | – | – | – | – | 0.444 | 0.378 | 0.204 | 0.17 | 0.159 | 0.471 | 0.452 | 0.22 | 0.182 | 0.146 |
| EBC-1 | – | – | – | – | – | 0.15 | 0.187 | 0.176 | 0.181 | 0.167 | – | – | – | – | – | 0.73 | 0.195 | 0.141 | 0.116 | 0.107 |
| NCI-H441 | 0.46 | 0.318 | 0.196 | 0.131 | 0.132 | – | – | – | – | – | 0.808 | 0.552 | 0.269 | 0.204 | 0.176 | 0.651 | 0.241 | 0.187 | 0.161 | 0.116 |
| A549 | – | – | – | – | – | 0.967 | 0.747 | 0.249 | 0.0488 | 0.033 | 0.158 | 0.0726 | 0.0184 | 0.0201 | 0.0216 | 0.296 | 0.279 | 0.0098 | 0.0228 | 0.014 |
| NCI-H1703 | – | – | – | – | – | 0.898 | 0.262 | 0.156 | 0.164 | 0.114 | – | – | – | – | – | 0.359 | 0.266 | 0.0911 | 0.119 | 0.105 |
| LCLC-103H | 0.61 | 0.695 | 0.709 | 0.712 | 0.56 | – | – | – | – | – | 0.321 | 0.318 | 0.279 | 0.198 | 0.193 | 0.771 | 0.758 | 0.734 | 0.58 | 0.367 |
| NCI-H1563 | – | – | – | – | – | 1.01 | 1.19 | 0.901 | 0.704 | 0.612 | 0.66 | 0.605 | 0.53 | 0.494 | 0.497 | – | – | – | – | – |
